What was measured:
[1] = tested on: Male spontaneously hypertensive rats (SHR), arterial blood pressure; experiment: Depressor response after intraduodenal administration (1 mg/kg), Table 2; assay type: in vivo, rat; conditions: for Half-life: '120<' means greater than 120
Method: Arterial blood pressure was measured through the catherized artery with a pressure transducer (MPU-0.5, manufactured by Nihon Kohden Kabushiki Kaisha). The catheter was inserted into the abdominal aorta via the median coccygcal artery of SHR under light ether anesthesia. The recordings were made on a rectigraph (manufactured by Sanei Sokki Kabushiki Kaisha). The 1,4-dihydropyridine derivatives prepared in the foregoing examples were administered with catheter which was inserted previously into the caudal vein or duodenum at least two hours after the operation. SHR were restrained with wire mesh cage immediately after the operation.

[2] = tested on: Male SHR, systolic blood pressure; experiment: Systolic blood pressure by tail cuff method, oral administration (3 mg/kg), Table 4; assay type: in vivo, rat; conditions: conscious SHR; for Duration: '24<' means greater than 24
Method: Systolic blood pressure was measured by the tail cuff method with electrophygmomanometer (PE-300, made by Narco Co.). Each derivative (3 mg/kg) was administered orally, suspended in 5% gum arabic solution.

[3] = tested on: Male spontaneously hypertensive rats (SHR), arterial blood pressure; experiment: Depressor response after intravenous administration (30 μg/kg), Table 1; assay type: in vivo, rat; conditions: for Duration: '90<' means greater than 90
Outline: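 Conscious restrained SHR with mean arterial pressure above 140 mmHg; pressure recorded via abdominal aortic catheter and transducer. Dosing was at least 2 h after surgery, through a caudal vein catheter. Compound was given in 1.5% PVP/ethanol diluted with 0.9% saline.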

[4] = in vivo; conditions: mouse, iv
Method: Acute toxicity of several derivatives was tested with male ddy mice weighed 15-30 grams by the up and down method. Each derivative was dissolved in 1.5% PVP/ethanol solution, and diluted with a saline solution. Such derivative solution was injected into the caudal vein, and the acute toxicity was determined.

[5] = tested on: rat (SHR), blood pressure and heart rate; experiment: Depressor response of trans- and cis-forms, dose-response intravenous, Tables 5 and 6; assay type: in vivo
Method: Male spontaneously hypertensive rats (SHR) which had mean arterial blood pressures higher than 140 mmHg were used for the experiments. Arterial blood pressure was measured through the catherized artery with a pressure transducer (MPU-0.5, manufactured by Nihon Kohden Kabushiki Kaisha). The catheter was inserted into the abdominal aorta via the median coccygcal artery of SHR under light ether anesthesia. The recordings were made on a rectigraph (manufactured by Sanei Sokki Kabushiki Kaisha). The 1,4-dihydropyridine derivatives prepared in the foregoing examples were administered with catheter which was inserted previously into the caudal vein or duodenum at least two hours after the operation. SHR were restrained with wire mesh cage immediately after the operation. […]

[6] = male ddy mice, caudal vein injection, '60<' means greater than 60

Compound | The time to reach the lowest BP [1] [min] | ΔBP (Maximum depressor response) [1] [mmHg] | Half-life [1] [min] | ΔBP After 1 hour [2] [mmHg] | ΔBP After 3 hours [2] [mmHg] | Duration [2] [h] | The time to reach the lowest BP [3] [min] | ΔBP (Maximum depressor response) [3] [mmHg] | Duration [3] [min] | LD50 [4, 6] [mg/kg] | further results
COC(=O)C1=C(C)NC(C)=C(C(=O)OCCN(C)Cc2ccccc2)C1c1cccc([N+](=O)[O-])c1.Cl (stereo not shown) [B, 4-(m-nitrophenyl)-2,6-dimethyl-1,4-dihydropyridine-3,5-dicarboxylic acid-3-methyl ester-5-[2-(benzylmethylamino)-ethyl]ester hydrochloride, reference compound] | 10.7 | 35 | 46.7 | -27 | -4.5 | < 3 | 0.6 | 58.3 | 45 to 90 | 9.7 | 
COC(=O)C1=C(C)NC(C)=C(C(=O)OCC#Cc2ccccc2)C1c1cccc([N+](=O)[O-])c1 (stereo not shown) [Example 55, Methyl phenylpropargyl 4-(3-nitrophenyl)-2,6-dimethyl-1,4-dihydropyridine-3,5-dicarboxylate] | 60 | 45 | > 240 | -65 | -75 | > 24 | 2 | 55 | > 90 | > 60 | 
COC(=O)C1=C(C)NC(C)=C(C(=O)OCC/C=C/c2ccc3ccccc3c2)C1c1cccc([N+](=O)[O-])c1 (stereo not drawn) [12 (trans), 4-β-naphthyl-3-butenyl methyl 4-(3-nitrophenyl)-2,6-dimethyl-1,4-dihydropyridine-3,5-dicarboxylate] | 50 | 25 | 100 |  |  |  | 3.0 | 50 | > 90 |  | LD50 [4]: > 60 mg/kg; Depressure Response MaxΔBP ([5]; 10 μg/kg i.v.): 21.7 mmHg; Depressure Response Peak ([5]; 10 μg/kg i.v.): 2.8 min; MaxΔHR (Heart rates) ([5]; 10 μg/kg i.v.): 43.3 beats/min; T 1/2 (Halflife) ([5]; 10 μg/kg i.v.): 11.3 min; Depressure Response MaxΔBP ([5]; 30 μg/kg i.v.): 54.8 mmHg; Depressure Response Peak ([5]; 30 μg/kg i.v.): 4.1 min; MaxΔHR (Heart rates) ([5]; 30 μg/kg i.v.): 90.0 beats/min; T 1/2 (Halflife) ([5]; 30 μg/kg i.v.): 16.0 min; Depressure Response MaxΔBP ([5]; 100 μg/kg i.v.): 72.5 mmHg; Depressure Response Peak ([5]; 100 μg/kg i.v.): 4.3 min; MaxΔHR (Heart rates) ([5]; 100 μg/kg i.v.): 80.0 beats/min; T 1/2 (Halflife) ([5]; 100 μg/kg i.v.): 37.5 min; ED40 ([5]; Rattus norvegicus, intravenous, from regression line): 0.0199 mg/kg

From patent publication US4672068A, “Antihypertensive 1,4-dihydropyridines having a conjugated ester” (Fujirebio Kabushiki Kaisha, priority 1984, dated 1987)
